Experimental data reported in publication PMC12028158, “Synthesis and In Vitro Evaluation of the Anticancer Effect of Novel Phosphonium Vindoline Derivatives” (International Journal of Molecular Sciences, 2025).
Where two headings read alike, the source gives them in different places.

Assays:
Assay type in all cases: cell-based
[1] = system: CCRF-CEM; test: NCI60 five-dose screen; conditions: Homo sapiens
[2] = system: K-562; test: NCI60 five-dose screen; conditions: Homo sapiens, K562
[3] = system: RPMI-8226; test: NCI60 five-dose screen; conditions: Homo sapiens
[4] = system: EKVX; test: NCI60 five-dose screen; conditions: Homo sapiens
[5] = system: HOP-62; test: NCI60 five-dose screen; conditions: Homo sapiens
[6] = system: NCI-H460; test: NCI60 five-dose screen; conditions: Homo sapiens
[7] = system: NCI-H522; test: NCI60 five-dose screen; conditions: Homo sapiens
[8] = system: HCC-2998; test: NCI60 five-dose screen; conditions: Homo sapiens
[9] = system: SW-620; test: NCI60 five-dose screen; conditions: Homo sapiens
[10] = system: U251; test: NCI60 five-dose screen; conditions: Homo sapiens
[11] = system: LOX IMVI; test: NCI60 five-dose screen; conditions: Homo sapiens
[12] = system: IGROV1; test: NCI60 five-dose screen; conditions: Homo sapiens, IGROV-1
[13] = system: OVCAR-5; test: NCI60 five-dose screen; conditions: Homo sapiens
[14] = system: ACHN; test: NCI60 five-dose screen; conditions: Homo sapiens
[15] = system: CAKI-1; test: NCI60 five-dose screen; conditions: Homo sapiens
[16] = system: RXF 393; test: NCI60 five-dose screen; conditions: Homo sapiens
[17] = system: TK-10; test: NCI60 five-dose screen; conditions: Homo sapiens
[18] = system: PC-3; test: NCI60 five-dose screen; conditions: Homo sapiens
[19] = system: T-47D; test: NCI60 five-dose screen; conditions: Homo sapiens, T47D
[20] = system: MDA-MB-468; test: NCI60 five-dose screen; conditions: Homo sapiens
[21] = system: Leukemia panel; test: NCI60 five-dose screen, panel mean; conditions: Homo sapiens, read-out: Mean GI50
[22] = system: Melanoma panel; test: NCI60 five-dose screen, panel mean; conditions: Homo sapiens, read-out: Mean GI50
[23] = system: Prostate Cancer panel; test: NCI60 five-dose screen, panel mean; conditions: Homo sapiens, read-out: Mean GI50
[24] = system: CCRF-CEM; test: NCI60 one-dose screen; conditions: Homo sapiens, read-out: Growth percent
[25] = system: HL-60(TB); test: NCI60 one-dose screen; conditions: Homo sapiens
[26] = system: SR; test: NCI60 one-dose screen; conditions: Homo sapiens, read-out: Growth percent
[27] = system: EKVX; test: NCI60 one-dose screen; conditions: Homo sapiens, read-out: Growth percent
[28] = system: HOP-62; test: NCI60 one-dose screen; conditions: Homo sapiens
[29] = system: HOP-92; test: NCI60 one-dose screen; conditions: Homo sapiens
[30] = system: NCI-H522; test: NCI60 one-dose screen; conditions: Homo sapiens
[31] = system: SF-539; test: NCI60 one-dose screen; conditions: Homo sapiens
[32] = system: U251; test: NCI60 one-dose screen; conditions: Homo sapiens
[33] = system: LOX IMVI; test: NCI60 one-dose screen; conditions: Homo sapiens, read-out: Growth percent
[34] = system: MDA-MB-435; test: NCI60 one-dose screen; conditions: Homo sapiens
[35] = system: SK-MEL-2; test: NCI60 one-dose screen; conditions: Homo sapiens
[36] = system: UACC-257; test: NCI60 one-dose screen; conditions: Homo sapiens
[37] = system: UACC-62; test: NCI60 one-dose screen; conditions: Homo sapiens
[38] = system: IGROV1; test: NCI60 one-dose screen; conditions: Homo sapiens
[39] = system: NCI/ADR-RES; test: NCI60 one-dose screen; conditions: Homo sapiens, read-out: Growth percent
[40] = system: 786-0; test: NCI60 one-dose screen; conditions: Homo sapiens
[41] = system: A498; test: NCI60 one-dose screen; conditions: Homo sapiens
[42] = system: UO-31; test: NCI60 one-dose screen; conditions: Homo sapiens
[43] = system: DU-145; test: NCI60 one-dose screen; conditions: Homo sapiens
[44] = system: MCF7; test: NCI60 one-dose screen; conditions: Homo sapiens
[45] = system: MDA-MB-231/ATCC; test: NCI60 one-dose screen; conditions: Homo sapiens
[46] = system: HS 578T; test: NCI60 one-dose screen; conditions: Homo sapiens, read-out: Growth percent
[47] = system: T-47D; test: NCI60 one-dose screen; conditions: Homo sapiens, T47D, read-out: Growth percent

Work on CC[C@]12C=CCN3CC[C@@]4(c5ccc(OC)cc5N(C)[C@H]4[C@@](O)(C(=O)OC)[C@@H]1OC(=O)CCC[P+](c1ccc(OC)cc1)(c1ccc(OC)cc1)c1ccc(OC)cc1)[C@@H]32 [9b] yielded a GI50 ([1]; Leukemia, five-dose, read-out: GI50) of 887 nM, a GI50 ([2]; K-562, Leukemia, five-dose, read-out: GI50) of 556 nM and a GI50 ([3]; RPMI-8226, Leukemia, five-dose, read-out: GI50) of 275 nM. It also gave a GI50 ([4]; Non-small Cell Lung Cancer, five-dose, read-out: GI50) of 1060 nM, a GI50 ([5]; HOP-62, Non-small Cell Lung Cancer, five-dose, read-out: GI50) of 1660 nM and a GI50 ([6]; NCI-H460, Non-small Cell Lung Cancer, five-dose, read-out: GI50) of 666 nM. The GI50 ([7]; NCI-H522, Non-small Cell Lung Cancer, five-dose, read-out: GI50) was 391 nM, the GI50 ([8]; HCC-2998, Colon Cancer, five-dose, read-out: GI50) was 498 nM and the GI50 ([9]; SW-620, Colon Cancer, five-dose, read-out: GI50) was 844 nM. It also gave a GI50 ([10]; U-251, U251, CNS Cancer, five-dose, read-out: GI50) of 360 nM, a GI50 ([11]; Melanoma, five-dose, read-out: GI50) of 614 nM and a GI50 ([12]; IGROV1, Ovarian Cancer, five-dose, read-out: GI50) of 533 nM. It also gave a GI50 ([13]; OVCAR-5, Ovarian Cancer, five-dose, read-out: GI50) of 1770 nM, a GI50 ([14]; Renal Cancer, five-dose, read-out: GI50) of 458 nM and a GI50 ([15]; CAKI-1, Renal Cancer, five-dose, read-out: GI50) of 13700 nM. It also gave a GI50 ([16]; RXF 393, Renal Cancer, five-dose, read-out: GI50) of 482 nM, a GI50 ([17]; TK-10, Renal Cancer, five-dose, read-out: GI50) of 1510 nM and a GI50 ([18]; PC-3, Prostate Cancer, five-dose, read-out: GI50) of 470 nM. The GI50 ([19]; T-47D, Breast Cancer, five-dose, read-out: GI50) was 353 nM, the GI50 ([20]; MDA-MB-468, MDA-MB-468, Breast Cancer, five-dose, read-out: GI50) was 241 nM and the GI50 ([21]; mean over Leukemia panel) was 550 nM. For the same molecule, the GI50 ([22]; mean over Melanoma panel) was 760 nM, the GI50 ([23]; mean over Prostate Cancer panel) was 710 nM and the activity at 10 µM ([24]; 10 μM, one-dose) was -71.2%. It also gave an activity at 10 µM ([25]; HL-60(TB), 10 μM, one-dose, read-out: Growth percent) of -39.6%, an activity at 10 µM ([26]; 10 μM, one-dose) of 15% and an activity at 10 µM ([27]; 10 μM, one-dose) of -85%. It also gave an activity at 10 µM ([28]; HOP-62, 10 μM, one-dose, read-out: Growth percent) of -81.5%, an activity at 10 µM ([29]; HOP-92, 10 μM, one-dose, read-out: Growth percent) of -82.9% and an activity at 10 µM ([30]; NCI-H522, 10 μM, one-dose, read-out: Growth percent) of -89.4%. It also gave an activity at 10 µM ([31]; SF-539, 10 μM, one-dose, read-out: Growth percent) of -98.9%, an activity at 10 µM ([32]; U-251, U251, 10 μM, one-dose, read-out: Growth percent) of -93.7% and an activity at 10 µM ([33]; 10 μM, one-dose) of -96.4%. The activity at 10 µM ([34]; MDA-MB-435, 10 μM, one-dose, read-out: Growth percent) was -76.9%, the activity at 10 µM ([35]; SK-MEL-2, 10 μM, one-dose, read-out: Growth percent) was -90.6% and the activity at 10 µM ([36]; UACC-257, 10 μM, one-dose, read-out: Growth percent) was -93.5%. The activity at 10 µM ([37]; UACC-62, 10 μM, one-dose, read-out: Growth percent) was -97.1%, the activity at 10 µM ([38]; IGROV-1, IGROV1, 10 μM, one-dose, read-out: Growth percent) was -92.1% and the activity at 10 µM ([39]; 10 μM, one-dose) was 79.9%. The activity at 10 µM ([40]; 786-0, 10 μM, one-dose, read-out: Growth percent) was -89.5%, the activity at 10 µM ([41]; A498, 10 μM, one-dose, read-out: Growth percent) was -83.2% and the activity at 10 µM ([42]; UO-31, 10 μM, one-dose, read-out: Growth percent) was -56.8%. For the same molecule, the activity at 10 µM ([43]; DU-145, 10 μM, one-dose, read-out: Growth percent) was -75.4%, the activity at 10 µM ([44]; MCF7, 10 μM, one-dose, read-out: Growth percent) was -83% and the activity at 10 µM ([45]; MDA-MB-231/ATCC, 10 μM, one-dose, read-out: Growth percent) was -97%. The activity at 10 µM ([46]; HS 578T, 10 μM, one-dose) was -65.4% and the activity at 10 µM ([47]; T-47D, 10 μM, one-dose) was -61.4%.

For CC[C@]12C=CCN3CC[C@@]4(c5ccc(OC)cc5N(C)[C@H]4[C@@](O)(C(=O)OC)[C@@H]1OC(=O)CCC[P+](c1ccc(F)cc1)(c1ccc(F)cc1)c1ccc(F)cc1)[C@@H]32 [9c], the GI50 [1] was 12700 nM, the GI50 [2] was 9830 nM and the GI50 ([3]; RPMI-8226) was 2050 nM. For the same molecule, the GI50 [4] was 19400 nM, the GI50 ([5]; HOP-62) was 20500 nM and the GI50 ([6]; NCI-H460) was 17000 nM. The GI50 ([7]; NCI-H522) was 3880 nM, the GI50 ([8]; HCC 2998) was 9530 nM and the GI50 ([9]; SW-620) was 18300 nM. For the same molecule, the GI50 ([10]; U-251) was 9360 nM, the GI50 [11] was 16600 nM and the GI50 [12] was 7090 nM. The GI50 ([13]; OVCAR-5) was 20800 nM, the GI50 [14] was greater than 48500 nM and the GI50 ([15]; CAKI-1) was greater than 48500 nM. It also gave a GI50 ([16]; RXF 393) of 8460 nM, a GI50 ([17]; TK-10) of 22200 nM and a GI50 ([18]; PC-3) of 12600 nM. For the same molecule, the GI50 [19] was 10500 nM, the GI50 ([20]; MDA-MB-468) was 1500 nM and the GI50 [21] was 7250 nM. It also gave a GI50 [22] of 8130 nM, a GI50 [23] of 18200 nM and an activity at 10 µM [24] of 20%. For the same molecule, the activity at 10 µM ([25]; HL-60, read-out: Growth percent) was -22.9%, the activity at 10 µM [26] was 42.6% and the activity at 10 µM [27] was 58.1%. The activity at 10 µM ([28]; HOP-62, read-out: Growth percent) was 64%, the activity at 10 µM ([29]; HOP-92, read-out: Growth percent) was -6.2% and the activity at 10 µM ([30]; NCI-H522, read-out: Growth percent) was -17.7%. For the same molecule, the activity at 10 µM ([31]; SF-539, read-out: Growth percent) was 24.2%, the activity at 10 µM ([32]; U-251, read-out: Growth percent) was 18.5% and the activity at 10 µM [33] was 31.1%. For the same molecule, the activity at 10 µM ([34]; MDA-MB-435, read-out: Growth percent) was 6.69%, the activity at 10 µM ([35]; SK-MEL-2, read-out: Growth percent) was -46.9% and the activity at 10 µM ([36]; UACC-257, read-out: Growth percent) was -34.3%. The activity at 10 µM ([37]; UACC-62, read-out: Growth percent) was -59.5%, the activity at 10 µM ([38]; IGROV-1, read-out: Growth percent) was -15% and the activity at 10 µM [39] was 104%. It also gave an activity at 10 µM ([40]; 786-0, read-out: Growth percent) of 80.9%, an activity at 10 µM ([41]; A498, read-out: Growth percent) of 101% and an activity at 10 µM ([42]; UO-31, read-out: Growth percent) of 81.5%. The activity at 10 µM ([43]; DU-145, read-out: Growth percent) was 47.7%, the activity at 10 µM ([44]; MCF7, read-out: Growth percent) was 7.7% and the activity at 10 µM ([45]; MDA-MB-231, read-out: Growth percent) was 22%. For the same molecule, the activity at 10 µM ([46]; Hs-578T) was 19.1% and the activity at 10 µM [47] was 10.4%.
